{
  "source": "patent US11091428B2",
  "about": "(HAPLOGEN GMBH, priority 2016, dated 2021)",
  "key": {"[1]": {"test_system": "picornaviruses (CVB1, HRV-A2, HRV-A23, EV-68)", "assay": "Anti-picornavirus cytopathic effect (CPE) reduction assay on HeLa H1 cells", "type": "cell-based", "conditions": "Enterovirus B, HeLa H1, 48 h, HeLa H1 cells, 48 h, category from averaging the EC50 values from four picornaviruses (CVB1, HRV-A2, HRV-A23, EV68); read-out: EC50 values of the compounds determined in the anti-picornavirus assay", "method_in_brief": "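Cytopathic-effect protection: EC50 from non-linear regression of cell viability (CellTiterBlue, 560/590 nm) 48 h post-infection, scaled between infected and mock-infected vehicle wells. Compound dilutions added to HeLa H1 cells 2 h before virus (MOI causing complete CPE within 2 days), in DMEM + 2% FBS; categories average the four viruses.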"}, "[2]": {"target": "T1, PLA2G16 (Homo sapiens, UniProt P53816)", "T1 construct": "Hexa-His (N); made in house; host or cells: E. coli BL21(DE3)", "T1 sequence (P53816 1-162)": "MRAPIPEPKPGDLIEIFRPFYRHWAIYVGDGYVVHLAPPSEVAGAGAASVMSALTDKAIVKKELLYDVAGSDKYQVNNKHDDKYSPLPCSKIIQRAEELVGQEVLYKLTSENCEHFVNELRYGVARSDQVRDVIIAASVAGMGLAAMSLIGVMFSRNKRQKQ", "assay": "Enzyme activity assay for PLA2G16 (Red/Green BODIPY PC-A2 fluorescence)", "type": "biochemical", "conditions": "His-tagged PLA2G16, 4 min pre-incubation, 2 nM to 50 μM; read-out: IC50 values of the compounds determined in the enzyme activity assay for PLA2G16", "method_in_brief": "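IC50 from non-linear fits of fluorescence rise (480/530 nm, 10 min) after adding Red/Green BODIPY PC-A2 mixed with DOPC/DOPG/cholesterol liposomes. Recombinant His-tagged human enzyme, bacterially expressed, was first exposed to inhibitor (2 nM–50 μM final) for 4 min in 50 mM Tris pH 8.5, 100 mM NaCl, 5 mM glutathione.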"}},
  "note": "pEC50, pIC50: −log10 of the molar value.",
  "data": [
    {"smiles": "O=C(NCC1CCCC1)C(=O)C1CCC(=O)N1CC1CC1", "note": "(centres unmarked) [FP 255, N-(Cyclopentylmethyl)-2-[1-(cyclopropylmethyl)-5-oxopyrrolidin-2-yl]-2-oxoacetamide]", "values": [
      {"measurement": "pEC50", "setting": "[1]", "result": "5.00 to 6.00"},
      {"measurement": "pIC50", "setting": "[2]", "result": "> 6.00"}
    ]},
    {"smiles": "CCOCCOCCNC(=O)C(=O)[C@H]1CCC(=O)N1Cc1ccccc1", "note": "[FP 302, 2-[(2R)-1-Benzyl-5-oxopyrrolidin-2-yl]-N-[2-(2-ethoxyethoxy)ethyl]-2-oxoacetamide]", "values": [
      {"measurement": "pEC50", "setting": "[1]", "result": "5.00 to 6.00"},
      {"measurement": "pIC50", "setting": "[2]", "result": "> 6.00"}
    ]},
    {"smiles": "CC(OCC1CCOCC1)C(=O)C(=O)NCC1CCC1", "note": "(centres unmarked) [FP 131, N-(Cyclobutylmethyl)-3-[(oxan-4-yl)methoxy]-2-oxobutanamide]", "values": [
      {"measurement": "pEC50", "setting": "[1]", "result": "> 6.00"},
      {"measurement": "pIC50", "setting": "[2]", "result": "> 6.00"}
    ]},
    {"smiles": "CC(C)NC(=O)C(=O)C1CCC(=O)N1Cc1ccccc1", "note": "(centres unmarked) [FP 308, 2-(1-Benzyl-5-oxopyrrolidin-2-yl)-2-oxo-N-(propan-2-yl)acetamide]", "values": [
      {"measurement": "pEC50", "setting": "[1]", "result": "> 6.00"},
      {"measurement": "pIC50", "setting": "[2]", "result": "> 6.00"}
    ]},
    {"smiles": "CC(C)C(OCC1CCOCC1)C(=O)C(=O)NCC1CC1", "note": "(centres unmarked) [FP 137, N-(Cyclopropylmethyl)-4-methyl-3-[(oxan-4-yl)methoxy]-2-oxopentanamide]", "values": [
      {"measurement": "pEC50", "setting": "[1]", "result": "< 5.00"},
      {"measurement": "pIC50", "setting": "[2]", "result": "> 6.00"}
    ]},
    {"smiles": "COc1ccccc1N(C=O)C(C)C(=O)C(=O)NCc1ccncc1", "note": "(centres unmarked) [FP 90, 3-[N-(2-Methoxyphenyl)formamido]-2-oxo-N-[(pyridin-4-yl)methyl]butanamide]", "values": [
      {"measurement": "pEC50", "setting": "[1]", "result": "< 5.00"},
      {"measurement": "pIC50", "setting": "[2]", "result": "> 6.00"}
    ]},
    {"smiles": "CC(C(=O)C(=O)NCC1CC1)N(Cc1ccccc1)S(C)(=O)=O", "note": "(centres unmarked) [FP 222, 3-(N-Benzylmethanesulfonamido)-N-(cyclopropylmethyl)-2-oxobutanamide]", "values": [
      {"measurement": "pEC50", "setting": "[1]", "result": "< 5.00"},
      {"measurement": "pIC50", "setting": "[2]", "result": "> 6.00"}
    ]},
    {"smiles": "Cc1ccccc1C(=O)N[C@@H](C)C(=O)C(=O)NCC1CC1", "note": "(single isomer, unassigned) [FP 157]", "values": [
      {"measurement": "pEC50", "setting": "[1]", "result": "5.00 to 6.00"},
      {"measurement": "pIC50", "setting": "[2]", "result": "> 6.00"}
    ]},
    {"smiles": "O=C(NCc1ncccn1)C(=O)[C@H]1CCC(=O)N1Cc1ccccc1", "note": "[FP 298, 2-[(2R)-1-Benzyl-5-oxopyrrolidin-2-yl]-2-oxo-N-[(pyrimidin-2-yl)methyl]acetamide]", "values": [
      {"measurement": "pEC50", "setting": "[1]", "result": "5.00 to 6.00"},
      {"measurement": "pIC50", "setting": "[2]", "result": "> 6.00"}
    ]},
    {"smiles": "CC(C(=O)C(=O)NC1CC1)N(C=O)Cc1ccccc1", "note": "(centres unmarked) [FP 44, 3-(N-Benzylformamido)-N-cyclopropyl-2-oxobutanamide]", "values": [
      {"measurement": "pEC50", "setting": "[1]", "result": "5.00 to 6.00"},
      {"measurement": "pIC50", "setting": "[2]", "result": "> 6.00"}
    ]},
    {"smiles": "CC(C)CC(C(=O)C(=O)NCC1CC1)N(C=O)CC1CCOCC1", "note": "(centres unmarked) [FP 63, N-(Cyclopropylmethyl)-5-methyl-3-{N-[(oxan-4-yl)methyl]formamido}-2-oxohexanamide]", "values": [
      {"measurement": "pEC50", "setting": "[1]", "result": "> 6.00"},
      {"measurement": "pIC50", "setting": "[2]", "result": "> 6.00"}
    ]},
    {"smiles": "CC(C(=O)C(=O)NCC1CCCCC1)N(C=O)CC1CC1", "note": "(centres unmarked) [FP 51, N-(Cyclohexylmethyl)-3-[N-(cyclopropylmethyl)formamido]-2-oxobutanamide]", "values": [
      {"measurement": "pEC50", "setting": "[1]", "result": "5.00 to 6.00"},
      {"measurement": "pIC50", "setting": "[2]", "result": "> 6.00"}
    ]},
    {"smiles": "COCC(=O)N(c1ccccc1OC)C(C)C(=O)C(=O)NCc1cccc(Cl)c1", "note": "(centres unmarked) [FP 175, N-[(3-Chlorophenyl)methyl]-3-[2-methoxy-N-(2-methoxyphenyl)acetamido]-2-oxobutanamide]", "values": [
      {"measurement": "pEC50", "setting": "[1]", "result": "5.00 to 6.00"},
      {"measurement": "pIC50", "setting": "[2]", "result": "> 6.00"}
    ]},
    {"smiles": "CC(OC1CCCCC1)C(=O)C(=O)NCC1CC1", "note": "(centres unmarked) [FP 120, 3-(Cyclohexyloxy)-N-(cyclopropylmethyl)-2-oxobutanamide]", "values": [
      {"measurement": "pEC50", "setting": "[1]", "result": "> 6.00"},
      {"measurement": "pIC50", "setting": "[2]", "result": "> 6.00"}
    ]},
    {"smiles": "O=C(NCCc1ccncc1)C(=O)C1CCC(=O)N1Cc1ccccc1", "note": "(centres unmarked) [FP 226, 2-(1-Benzyl-5-oxopyrrolidin-2-yl)-2-oxo-N-[2-(pyridin-4-yl)ethyl]acetamide]", "values": [
      {"measurement": "pEC50", "setting": "[1]", "result": "5.00 to 6.00"},
      {"measurement": "pIC50", "setting": "[2]", "result": "> 6.00"}
    ]},
    {"smiles": "COc1ccccc1N(C=O)C(C)C(=O)C(=O)NCC1CCCCC1", "note": "(centres unmarked) [FP 25, N-(Cyclohexylmethyl)-3-[N-(2-methoxyphenyl)formamido]-2-oxobutanamide]", "values": [
      {"measurement": "pEC50", "setting": "[1]", "result": "> 6.00"},
      {"measurement": "pIC50", "setting": "[2]", "result": "> 6.00"}
    ]},
    {"smiles": "Cc1ccc(CN2C(=O)CCC2C(=O)C(=O)NC2CC2)s1", "note": "(centres unmarked) [FP 277, N-Cyclopropyl-2-{1-[(5-methylthiophen-2-yl)methyl]-5-oxopyrrolidin-2-yl}-2-oxoacetamide]", "values": [
      {"measurement": "pEC50", "setting": "[1]", "result": "5.00 to 6.00"},
      {"measurement": "pIC50", "setting": "[2]", "result": "> 6.00"}
    ]},
    {"smiles": "CC(C)NC(=O)C(=O)C(C)OCc1ccccc1", "note": "(centres unmarked) [FP 136, 3-(Benzyloxy)-2-oxo-N-(propan-2-yl)butanamide]", "values": [
      {"measurement": "pEC50", "setting": "[1]", "result": "> 6.00"},
      {"measurement": "pIC50", "setting": "[2]", "result": "> 6.00"}
    ]},
    {"smiles": "CC[C@@H](C)NC(=O)C(=O)C(C)N(C=O)c1ccccc1OC", "note": "(stereo partly drawn) [FP 102, N-[(2R)-Butan-2-yl]-3-[N-(2-methoxyphenyl)formamido]-2-oxobutanamide]", "values": [
      {"measurement": "pEC50", "setting": "[1]", "result": "5.00 to 6.00"},
      {"measurement": "pIC50", "setting": "[2]", "result": "> 6.00"}
    ]}
  ]
}
